In patent US9579335B2, “Treatment of cystic diseases” (Indiana University Research and Technology Corporation, priority 2010, dated 2017):

System: mpkCCDcl4 cells
Experiment: Ussing-chamber short-circuit current (SCC) measurement of net transepithelial ion transport
Assay type: cell-based, mouse
Conditions: for effect of pretreatment on cyst fluid stimulated ion transport (SCC): inhibitor/effector added before 10% cyst fluid on serosal side; for ion transport (SCC) response to addition of the substance itself: added to the bathing media of monolayers, no prior stimulus
Method: mpkCCDcl4 cell culture. mpkCCDcl4 cells were developed as a line expressing the characteristics of the principal cell type of the distal nephron and cortical collecting duct. mpkCCDcl4 cells were grown in a humidified chamber at 37° C. and 5% CO2. The cell line was maintained in plastic culture flasks for propagation. For electrophysiological measurements, the cells were seeded onto Transwell filters at ¼ confluent density. The media was replaced thrice weekly and consisted of Dulbecco's modified Eagle's medium (DMEM): Ham's F12 basal media supplemented with 2% fetal bovine serum, 1 mM Glutamax, 25 U/mL penicillin, […] streptomycin, 12 mg/L ciprofloxacin, 5 mg/L transferrin, 20 μg/L sodium selenite, and 10^−7 M triiodothyronine.
Electrophysiology. Ussing-style electrophysiological measurements were used to measure net transepithelial transport as well as to monitor the transepithelial resistance as described previously. Briefly, transwell permeable membranes containing confluent (>10 days post seeding) monolayers of mpkCCDcl4 cells were excised from the plastic supports, mounted in modified Ussing chambers, and connected to a DVC-1000 Voltage/Current Clamp (World Precision Instruments) with voltage and current electrodes on either side of the membrane. The cells were bathed in serum-free medium maintained at 37° C. via water-jacketed buffer chambers on either side of the filter. Medium was circulated and kept at constant pH using a 5% CO2/95% O2 gas lift. The spontaneous transepithelial potential difference was measured and then clamped to zero. The resulting short-circuit current (SCC) is a measure of net transepithelial ion transport. During the entire experiment, non-zero voltage pulses are induced every 200 seconds and the current displacement during the pulse is used to calculate the transepithelial resistance via Ohm's law. Cultures with resistances lower than 1000 Ω·cm^2 measured within the first 10 minutes of placement in the chambers were discarded. The basal level of transport was monitored for 20-40 minutes before the start of an experiment. The time of addition of the stimulatory effector is defined as zero time.
Unless otherwise stated, each experiment was repeated 3-4 times. Because of variability in the magnitude of the stimulatory responses to cyst fluid from various patients, only one representative experiment is depicted.
The functional effects of cyst fluid were measured as changes in net transepithelial ion transport across high resistance epithelia formed by the mpkCCDcl4 cell line. […] For electrophysiological measurements, confluent cell monolayers grown on permeable supports are mounted in Ussing chambers with access to both the basolateral and apical surfaces. The spontaneous transepithelial potential difference is measured and clamped to zero. In high resistance epithelia, the resulting short-circuit current (SCC) is a measure of net transepithelial transport. By convention, a positive change is defined as anion moving in a secretory direction (serosal to luminal bathing media) or a cation moving in an absorptive direction (luminal to serosal bathing media). Likewise, a decrease in SCC can be defined as anions or cations moving in the opposite direction from that described above. The nature and direction of the ion flux is characterized by effectors and inhibitors.

Compound: [Ba+2] [Ba^2+]
- effect on stimulated Cl- secretion (pretreatment on the apical face): without effect
- inhibition of stimulated Cl- secretion (pretreatment on the serosal side): about 50%

Compound: CCCCCCCCCCCCOP(=O)(O)O [DDP, dodecylphosphate]
- effect of pretreatment on cyst fluid stimulated ion transport (SCC): no effect

Compound: CCCCCCCC(=O)OC[C@H](COP(=O)(O)OP(=O)(O)O)OC(=O)CCCCCCC [DGPP, diacylglycerol pyrophosphate]
- concentrations with adverse effect on integrity of the cellular monolayer (decrease in transepithelial resistance): above 20 μM
- effect of pretreatment on cyst fluid stimulated ion transport (SCC): substantially inhibited
- average inhibition of the Cl- secretory peak stimulated in response to 10% cyst fluid (pretreatment with 20 μM DGPP, five experiments): 72.8+4.49%

Compound: O=C(CNc1ccc2ccccc2c1)N/N=C/c1cc(Br)c(O)c(Br)c1O [GlyH-101]
- ion transport (SCC) response to addition of the substance itself: causes a stimulatory response when added
- effect of pretreatment on cyst fluid stimulated ion transport (SCC): Neither inhibitor alone completely blocked the response

Compound: COc1ccc2c(c1)c(CC(=O)O)c(C)n2C(=O)c1ccc(Cl)cc1 [Indomethacin, indomethacin]
- effect of pretreatment on cyst fluid stimulated ion transport (SCC): did not alter

Compound: CCCCCCCCCCCCC/C=C/[C@@H](O)[C@@H](N)COP(=O)(O)O [S-1-P, sphingosine-1-phosphate]
- ion transport (SCC) response to addition of the substance itself: consistently minimal compared to those elicited by LPA

Compound: N=C(N)NC(=O)c1nc(Cl)c(N)nc1N [amiloride]
- ion transport (SCC) response to addition of the substance itself: immediate decrease in the basal current
- effect of pre-treatment on subsequent response to forskolin (amiloride 10^-5 M apical, 10 minutes before forskolin): completely eliminated a subsequent response to forskolin
- effect on forskolin-stimulated ion transport, added after forskolin (amiloride 10^-5 M apical, 30 minutes after forskolin): completed inhibited
- effect on ion transport remaining 30 minutes after cyst fluid addition (amiloride added to apical bathing media): decreased the remaining ion transport to zero

Compound: O=C(OC[C@H]1O[C@@H](OC(=O)c2cc(O)c(O)c(OC(=O)c3cc(O)c(O)c(O)c3)c2)[C@H](OC(=O)c2cc(O)c(O)c(OC(=O)c3cc(O)c(O)c(O)c3)c2)[C@@H](OC(=O)c2cc(O)c(O)c(OC(=O)c3cc(O)c(O)c(O)c3)c2)[C@@H]1OC(=O)c1cc(O)c(O)c(OC(=O)c2cc(O)c(O)c(O)c2)c1)c1cc(O)c(O)c(OC(=O)c2cc(O)c(O)c(O)c2)c1 [tannic acid]
- effect of pretreatment on cyst fluid stimulated ion transport (SCC): Neither inhibitor alone completely blocked the response

Compound: N-palmitoyl-L-serine phosphoric acid [L-NASPA]
- ion transport (SCC) response to addition of the substance itself: immediate response that mimics the response to LPA or 10% cyst fluid
- effect of pretreatment on cyst fluid stimulated ion transport (SCC): appears to inhibit a subsequent response to cyst fluid

Compound: lysophosphatic acid [LPA]
- ion transport (SCC) response to addition of the substance itself: identical to the response to renal cyst fluid
